Row | melting point [°C] | Structure (SMILES)
1 | 148 | Cc1cc(Cc2cc(C(C)(C)CC(C)(C)C)cc(-n3nc4ccccc4n3)c2O)c(O)c(C(C)(C)C)c1
2 | 108 to 109 | COc1ccc(C(=O)NCCc2cccc(C)c2)cc1OC
3 | 198 to 199 | CN(C)c1ccc(CN/C=C2\C(=O)NC(=O)c3ccc(I)cc32)cc1O
4 | 127 | CC(C)NC(=O)c1ccc(F)c2c1CC(N(CCCc1c[nH]c3ccc(F)cc13)C1CCC1)CO2 (centres undefined)
5 | 174 to 176 | O=C(O)C1=Cc2cc(Cl)c(Oc3cccc(Cl)c3)cc2OC1C(F)(F)F (centres undefined)
6 | 175 to 177 | Cc1cc(NS(=O)(=O)c2ccccc2F)cc(C)c1S(=O)(=O)C[N+](=O)[O-]
7 | 248 | CCOC(=O)C1(C)C(=O)Nc2cc(N)ccc21 (centres undefined)
8 | 250 to 252 | CNC(=O)c1cc(C)ccc1NC(=O)c1ccc(O)cc1
9 | 136 to 138 | CCCc1nn(C)c2c(=O)n(CCNc3ccc(OC(C)(C)C(=O)O)cc3)c(CC)nc12
10 | 167 to 168 | Cc1nc(C)c(Cl)c(NCc2ccc(O)c(OC(F)F)c2)n1
11 | 135 | CC(C)C(N)CN1CCC(Nc2nc3ccccc3n2Cc2ccc3ccccc3n2)CC1 (centres undefined)
12 | 151 to 153 | COc1cc(O)c2c(c1O)C1C=CC2C1 (centres undefined)
13 | 76 | COC(=O)C1=CC(=O)CCC1c1ccccc1OC (racemic)
14 | 108 to 109 | CCOc1nc2cccc(C(=O)OC(C)OC(=O)OC3CCCCC3)c2n1Cc1ccc(-c2ccccc2-c2nc(=O)o[nH]2)cc1 (centres undefined)
15 | 96 to 98 | CCCCCCCCCCCc1nnc2n1-c1sc(CC)cc1C(c1ccc(O)cc1)OC2 (centres undefined)
16 | 110 | O=C(c1cc(-c2ccc(Cl)cc2)c(N2CCOCC2)s1)c1ccc(Cl)cc1Cl
17 | 206 to 208 | Cc1ccc2c(c1)-c1ncnn1CC(=O)N2
18 | 170 | CNC(=O)c1ccc(-n2nc(C(=O)NC3(C(=O)O)C4CC5CC(C4)CC3C5)cc2-c2c(OC)cccc2OC)c2ccccc12 (centres undefined)
19 | 120 to 121 | CC[C@@H](c1ccc(C(F)(F)F)cc1)N(Cc1ccc(C(=O)OC)cc1)S(=O)(=O)c1ccc(Cl)cc1
20 | 51 to 53 | C#CCCN1CCC(O)(Cc2ccccc2)CC1
21 | 88 to 90 | N#CC(C#N)=C1N(CCCCN2CCCCC2)CCN1CCCN1CCCCC1
22 | 220 to 222 | CC(=O)N(C(=O)OC(C)(C)C)c1ccc(-c2nc3n(Cc4c(F)cccc4F)cc(-c4ccccc4)c(=O)n3c2C)cc1
23 | 121 | CC(c1cccc(Cl)c1)(n1ccnc1)C1(O)C2CC3CC(C2)CC1C3 (centres undefined)
24 | 143 to 145 | CC(=O)Oc1ccc(C2COc3cc(OC(C)=O)cc(C)c3C2=O)cc1 (centres undefined)

Row | melting point [°C] | Structure (SMILES)
25 | 216 to 218 | CN1CCC(C2Cc3c(O)cccc3C(=O)N2)CC1 (centres undefined)
26 | 78 to 79 | CCOCc1cc2ccccc2oc1=Nc1ccc(OC)cc1
27 | 221 to 225 | CN1c2ccc(-c3cccc4ccccc34)cc2S(=O)(=O)c2cc(-c3cccc4ccccc34)ccc21
28 | 173 to 175 | COc1ccc(C2=C(c3ccc(O)cc3)CCCc3cc(OCc4ccccc4)ccc32)cc1
29 | 196 to 199 | Cc1ccc(C2(CCC(=O)O)NC(=O)NC2=O)cc1Cl (centres undefined)
30 | 138 to 140 | CCC(CC)N1CCNc2c1cc(C)nc2Oc1c(C)cc(C)cc1C
31 | 152 to 154 | CC=CC=CCOC(=O)C1=C(C)NC(C)=C(C(=O)OC(C)(C)C)C1c1cccc([N+](=O)[O-])c1 (centres undefined)
32 | 103 to 104 | O=C(O)c1cc(Oc2ccc(C(F)(F)F)cc2Cl)ccc1Cl
33 | 310 to 320 | C[C@@H](NC(=O)c1c[nH]c2ncc(-c3nn(C)c4ccsc34)nc12)C(=O)N1CC(C#N)C1
34 | 124 to 126 | COc1ccncc1C#N
35 | 158 to 161 | O=C1C(=Cn2ccnc2)c2ccccc2N1c1ccccc1
36 | 272 to 273 | Cc1cc2c(s1)S(=O)(=O)N=C(NC(C)C)N2
37 | 103 to 105 | O=C(CNC(=O)c1nc2ccc(Oc3cccc(C(F)(F)F)c3)cc2cc1OCc1ccccc1)OCc1ccccc1
38 | 132 to 134 | Cc1cccc2c1NC(=O)C(CCCN1CCN(c3cccc(F)c3)CC1)S2 (centres undefined)
39 | 123 to 124 | c1ccc(-c2ccc3oc(COc4ccc(CCCn5ccnc5)cc4)nc3c2)cc1
40 | 75 | Cc1cc(C)c(C2=C(OC(=O)C(C)(C)C)CN(C)C2=O)c(C)c1
41 | 99 to 99.5 | CCN(CC)CCOc1cccc2c1c1cc(Cl)ccc1n2Cc1ccc(F)cc1
42 | 238 to 240 | Nc1c([N+](=O)[O-])sc2c(F)cccc12
43 | 134 to 135 | Cc1cc(C)nc(N(C=O)c2ccccc2)n1
44 | 162 to 166 | N#Cc1cc(=O)c2ccc(CBr)cc2o1
45 | 188 to 189 | CCCCCc1cc2c(nc(O)n2CCCCS(C)(=O)=O)c(N)n1
46 | 127 to 129 | OCCC[C@H]1OC[C@H](c2ccc(Cl)c3ccccc32)CO1
47 | 62 to 66 | COC(=O)c1cccc(NC(=O)[C@H](Cc2ccccc2)NC(=O)OC(C)(C)C)c1
48 | 192 to 193 | N#Cc1ccc(N(Cc2ccc(O)c(Cl)c2)n2cnnc2)cc1-c1ccoc1

Row | melting point [°C] | Structure (SMILES)
49 | 56 | O=C(O)CCc1cc(F)cc(F)c1
50 | 225 to 227 | C#CCOCCn1cnc2c(N)nc3ccccc3c21
51 | 138 to 139 | Cc1n[nH]c(NCCCCOc2cccc(CN3CCCCC3)c2)n1
52 | 143 to 145 | CC(C)C1CC(=O)C(=C2CCCN2)C(=O)C1 (centres undefined)
53 | 72 to 74 | CCOCCCOc1ccc2c(c1)C(N(CC)S(C)(=O)=O)CC(C)(C)O2 (centres undefined)
54 | 181 to 183 | CNc1nc(-c2cccc(-c3cncc4ccccc34)c2)c2cc(OC)c(OC)cc2n1
55 | 84 to 85 | COc1cc(C(C)=O)ccc1-c1ccccc1F
56 | 112 to 113 | COc1cc2c(Cl)c(C#N)cnc2cc1OS(=O)(=O)C(F)(F)F
57 | 111 to 112 | COC1CN(c2ccc(N3C[C@H](CN=[N+]=[N-])OC3=O)cc2F)C1
58 | 117 to 120 | CC(=O)Nc1cccc(NC(=O)c2cccc(S(=O)(=O)N3CCCCCC3)c2)c1
59 | 76 to 83 | O=C(O)c1cc(F)cc(C(F)(F)F)c1O
60 | 122 to 125 | O=Cc1cc(F)c(NC(=O)C(F)(F)F)c(F)c1
61 | 97 | N#CCC1CC(=O)N(c2ccc(F)cc2)C1=O (centres undefined)
62 | 142 to 143 | CC(=N)NC=Cc1ccc([N+](=O)[O-])cc1
63 | 93 to 99 | CSCCc1nc(N2CCc3ccccc3CC2)c(C#N)c(=O)n1CCO
64 | 268 to 273 | CC(C)Nc1c(-c2c(F)cc(F)cc2F)c(Cl)nc2nncn12
65 | 210 to 212 | CN(C)S(=O)(=O)NC(=O)N1CC(c2ccccc2)C(c2ccc(Cl)cc2)=N1 (centres undefined)
66 | 225 to 230 | N=C(N)c1ccc2cc(OC(=O)C3CCC3)ccc2c1
67 | 168 to 170 | O=c1cc(-c2cc(OCc3ccccc3)cc(OCc3ccccc3)c2)oc2cc(OCC(O)CN3CCN(c4ccccc4)CC3)ccc12 (centres undefined)
68 | 158 | CN(C)n1c(Cl)n[nH]c1=O
69 | 166 to 168 | CC(=NO)C1=CCN(C)CC1
70 | 95 to 98 | N#CC(c1ccccc1)(c1ccccc1)n1ccnc1
71 | 125 to 128 | CN(C)CCc1[nH]c2ccccc2c1CSC(=S)N(C)C
72 | 141 to 142 | COC(=O)NC(CC(=O)c1ccc(Cl)cc1)C(=O)O (centres undefined)

Row | melting point [°C] | Structure (SMILES)
73 | 142 to 144 | Cn1c(C(F)(F)F)ccc(-c2c(F)cc(Cl)c3oc(CBr)cc23)c1=O
74 | 286 to 287 | CC1CNCc2c1[nH]c1cnc3cc(Cl)ccc3c21 (centres undefined)
75 | 108 to 110 | CCCCCCCCOC(=O)c1ccc(OC(=O)c2ccc(C(=O)Oc3ccc(C(=O)OCCCCCCCC)cc3)cc2)cc1
76 | 71 to 72 | Cc1cc(N)c(C(=O)OC(C)C)cc1Oc1ccc(OC(F)(F)F)cc1
77 | 210 to 212 | N#Cc1cc(N2C(=O)CC(C(F)(F)F)CC2=O)c(F)cc1Cl
78 | 192 | CCOC(=O)N1CCC(=C2c3ccccc3CCn3c(CO)cnc32)CC1
79 | 104 to 106 | CC(C)(C)c1csc(-c2cc3cc(OCc4cccc(C#N)c4)ccc3o2)n1
80 | 120 to 123 | Nc1nc2ccccc2n1-c1cccc(-c2ccc3[nH]ccc3c2)c1
81 | 146 to 148 | CN(CC(N)=O)S(=O)(=O)Cc1cccc(C(F)(F)F)c1
82 | 80 to 81 | COc1ccc(CSc2cnccc2C#N)cc1
83 | 191 to 192 | Cc1nnc(-c2ccc3occ(-c4ccc(S(=O)(=O)CF)cc4)c3c2)o1
84 | 98 to 100 | O=C(CNC(=O)c1ccc([N+](=O)[O-])c(I)c1)OCc1ccccc1
85 | 98 to 120 | CN(C)Cc1ccc(CSCCNC(=C[N+](=O)[O-])NCc2ccc3c(c2)OCO3)o1
86 | 60.7 to 61.6 | FCCOc1ccc(COCOc2ccc(Cl)cc2)cc1
87 | 150 to 152 | COc1ccc(C2CCC(=O)CC2NC(=O)c2ccc(OCC3CC3)c(OCC3CC3)c2)cc1OC (centres undefined)
88 | 110 to 115 | CC(C#Cc1cccc(Oc2ccccc2)c1)N(O)C(N)=O (centres undefined)
89 | 78.6 to 79.7 | CC1(C)C=C(C(=O)c2ccc3c(c2)CCN(C(N)=O)C3)C(C)(C)CC1
90 | 144 to 146 | COc1ccc(/C=C/C(=O)/C=C/c2ccc(C(F)(F)F)cc2)cc1
91 | 118 to 120 | CC1=C(C(=O)OCCN2CCCCC2)C(c2ccccc2C(F)(F)F)c2c(ccnc2OC(C)C)N1 (centres undefined)
92 | 193 to 194 | COC(=O)c1[nH]c2c(C)ccc(C)c2c1-c1nc2ccccc2s1
93 | 249 to 251 | CCN1c2ncccc2C(=O)Nc2c(C)cc(OC)nc21
94 | 129 to 131 | CC1(C2CCCC2)Cc2cc(OCC(=O)O)c(Cl)c(Cl)c2C1O (centres undefined)
95 | 195 to 196 | CC(=O)c1ccc(Nc2cccc(-c3ccccn3)c2)c([N+](=O)[O-])c1

Row | Structure (SMILES) | melting point [°C]
96 | CN1Cc2c(C#CC3(O)CCC3)ncn2-c2ccc(F)cc2C1=O | 177 to 179
97 | Oc1cc(Br)c(Br)cc1O | 110 to 111
98 | Cc1nnc2n1-c1ccc(C#Cc3cccs3)cc1C(c1ccccc1Cl)=NC2 | 160 to 163
99 | c1ccc(N(c2ccc3c(c2)Oc2ccc(N(c4ccccc4)c4cccc5ccccc45)cc2O3)c2cccc3ccccc23)cc1 | 315

Source: a melting point compilation (Tetko et al.; mined from patent text by program, amines drawn as free bases though some values may be those of a salt)
